Measured values published in PMC8879825, “Identification of α-Glucosidase Inhibitors from Scutellaria edelbergii: ESI-LC-MS and Computational Approach” (Molecules, 2022).
In brackets after ≈: the same amount, converted by molar mass.

Target: yeast α-glucosidase enzymes
Experiment: α-Glucosidase inhibitory assay
Type: biochemical
Conditions: substrate p-nitrophenyl-α-D-glucopyranoside, pH 6.8, 37 °C
Procedure: The α-glucosidase assay was performed using 50 mM phosphate buffer (pH 6.8). All samples were dissolved in DMSO. An enzyme (2 U/2 mL) 20 µL/well and test samples (0.5 mg/mL) 20 µL/well and 135 µL/well phosphate buffer were loaded into a 96-well plate, followed by 15 min of incubation at 37 °C. Substrate p-nitrophenyl-α-D-glucopyranoside (0.7 mM) 25 µL/well was added to the 96-well plate after 15 min of incubation, and readings were measured at 400 nm for 30 min. DMSO 7% was used as a positive control. Percent inhibition was calculated by using the following formula [30]. % Inhibition=100×O.D of tested samples/O.D. of control−100
OD is the optical density of the tested samples.

IC50 (α-glucosidase inhibition): 377.26 ± 1.20 µg/mL (≈ 584 µM)
Structure (SMILES): C[C@H]1O[C@H](O[C@H]2[C@H](O)[C@@H](O)[C@@H](O[C@H]3[C@H](O)[C@@H](O)C(O)O[C@@H]3CO)O[C@@H]2CO)[C@H](O)[C@@H](O)[C@@H]1N[C@H]1C=C(CO)[C@@H](O)[C@H](O)[C@H]1O (stereo partly shown) [acarbose]
